Test results: publication PMC9325861, “Mouse precision-cut liver slices as an ex vivo model to study drug-induced cholestasis” (Archives of Toxicology, 2022)
Structures can show the parent of a compound that is named as a salt.

Key:
Mrp3 (Abcc3) = assay: qRT-PCR gene expression in mouse PCLS: Mrp3; assay type: cell-based; conditions: 48 h, in the presence and absence of BAs
Experimental: In short, freshly prepared PCLS were transferred to 12-well plates (Greiner bio-one GmbH, Austria), one slice per well.
(§1) Three PCLS incubated under a given condition were pooled in a 1.5-mL Rnase-free test tube, snap-frozen in liquid nitrogen, and stored at – 80 °C until analysis. RNA was isolated using a FavorPrep Tissue Total RNA Mini Kit (Favorgen, Vienna, Austria). Subsequently, the RNA yield was quantified using a NanoDrop One instrument (Thermo Fisher Scientific, Massachusetts, USA). Isolated RNA was reverse-transcribed to cDNA using a cDNA synthesis kit (Reverse Transcription System, Promega, Benelux B.V.). The cDNA samples were subsequently loaded in the thermal cycler with a program set to 22 °C for 10 min, 42 °C for 15 min, and 95 °C for 5 min.
qRT-PCR was used to determine the relative mRNA expression levels for the mouse target genes: Bsep (Abcb11), Mrp2 (Abcc2), Mrp3 (Abcc3), Mrp4 (Abcc4), Ntcp (Slc10a1), Fxr (Nr1h4), Cyp7a1 (Cyp7a1), Collagen type 1a1 (Col1a1), Hsp47 (Serpinh1). Primer sequences of the genes tested are given in Supplementary Table S1. QRT-PCR was performed using, the dye, FastStart Universal SYBR Green Master Mix (Roche Diagnostics Netherlands B.V., Almere, the Netherlands) with the ViiA™ 7 Real-Time PCR System (Applied Biosystems, Bleiswijk, the Netherlands). […] Samples were measured in duplicates. […] Results are expressed as log2(fold change).

Fxr (Nr1h4) = assay: qRT-PCR gene expression in mouse PCLS: Fxr; assay type: cell-based; conditions: 48 h, 30 µM CPZ in the presence of the humanized BA mixture
Experimental: In short, freshly prepared PCLS were transferred to 12-well plates (Greiner bio-one GmbH, Austria), one slice per well. Each well was filled with 1.3 mL pre-heated (37 ℃) and oxygenated (80%) Williams Medium E (1X, glutaMAX-1), which had been supplemented with 25 mM D-glucose monohydrate and 50 μg/ml Gentamicin (denoted as WME GG). […] The DMSO concentration used was below 0.5% in the incubation medium, equivalent to DMSO concentrations in solutions prepared by dilution of BA stock solutions with WME GG.
as §1, with “The cDNA samples were subsequently loaded in the thermal cycler with a program set to 22 °C for 10 min, 42 °C for 15 min, and 95 °C for 5 min.” left out
qRT-PCR was used to determine the relative mRNA expression levels for the mouse target genes: Bsep (Abcb11), Mrp2 (Abcc2), Mrp3 (Abcc3), Mrp4 (Abcc4), Ntcp (Slc10a1), Fxr (Nr1h4), Cyp7a1 (Cyp7a1), Collagen type 1a1 (Col1a1), Hsp47 (Serpinh1). […] Samples were measured in duplicates. […] Results are expressed as log2(fold change).

mouse Bsep protein = system: mouse Bsep protein; design: method as in Noe et al. [2001]; conditions: ref Noe et al. [2001]; cited from earlier work

CN(C)CCCN1c2ccccc2Sc2ccc(Cl)cc21 [CPZ, Chlorpromazine hydrochloride]
Mrp3 gene expression (Mrp3 (Abcc3)): reduces | Fxr gene expression (Fxr (Nr1h4)): small, but not significant, increase

COc1ccc(Cl)cc1C(=O)NCCc1ccc(S(=O)(=O)NC(=O)NC2CCCCC2)cc1 [GB, Glibenclamide]
Inhibition of the mouse Bsep protein (mouse Bsep protein): competitively inhibit
